Square brackets hold non-standard residues; d marks the D form. Ends that are not written are not given here. Peptide text beside a SMILES is read from it. Abu(4-PO3H2) = N[C@@H](CCP(=O)(O)O)C(=O)O; pS = N[C@@H](COP(=O)(O)O)C(=O)O
System: TCR27-AKD10R3 cells
Assay: X-scan (peptide scan), EGFP reporter effector cells
Format: cell-based, murine
Conditions: Fig. 1c source data, HLA B*07, T2 cells pulsed with 25 μg peptide per 1 × 10^6 cells, 2 h, 37 °C, effector cells 2:1 overnight, mean value of triplicate
Method: Tap-deficient T2 (174x CEM.T2) HLA-B*0702+ cells were received from Dr. Victor Engelhard. These and the commercially purchased Tap-deficient T2 (174 x CEM.T2) cells (ATCC CRL 1991) were maintained in RPMI 1640 (BioConcept) supplemented with 10% fetal calf serum (FCS, HyClone), 2mM L-glutamine and 1% Penicillin/Streptomycin at 37 °C and 5% CO2. The EGFP reporter cell line was based on a murine TCR negative thymoma cell line derived from strain BW5417 (ATCC®TIB-47TM) and was stably transduced with (a) TCR27 in which the human constant regions were replaced with those of mouse, (b) a chimeric mouse/human CD8, and (c) an EGFP reporter construct linked to a minimal IL-2 promoter comprising three NFAT-binding sites (3xNFAT)[44]. The transduced cells were termed TCR27-AKD10R3 cells and will be called the effector cells. Mouse cell lines were cultured in SF-IMDM (BioConcept) supplemented with 3% FCS, 1% Penicillin/Streptomycin, and 50 μM beta-mercaptoethanol at 37 °C and 10% CO2.
(§1) Peptides were dissolved in dimethyl sulfoxide (DMSO) at concentrations of 2–20 mg/mL, aliquoted and stored at −80 °C. Peptide-pulsing experiments were performed by pre-incubating T2 cells with 25 μg peptide per 1 × 10^6 cells in PBS for 2 h at 37 °C and 5% CO2, washed three times to remove unbound peptides and used for further downstream analysis. Peptide-pulsed T2 cells were incubated with effector cells in a 2:1 ratio overnight in SF-IMDM at 37 °C and 10% CO2, washed twice and stained with anti-mouse TCR-® chain clone H57-597 (BD Pharmingen #560656, 1:500) for 30 min at RT. Cells were washed twice before FACS-analysis using a BD FACS Canto II with System software v2.0. Data analysis was performed using FlowJo V10 Software. Binding affinity between each peptide and HLA-B*0702 was determined using an Alpha assay. It is a homogenous, proximity-based assay for detection of peptides binding to HLA class I molecules using a conformation-dependent anti-HLA class I antibody, W6/32, as one tag and a biotinylated recombinant HLA class I molecule as the other tag, and a proximity-based signal was generated through the luminescent oxygen channeling immunoassay technology (PerkinElmer) as described.
To identify the off-target peptides we have utilized an approach that was developed previously. In brief, we investigated which amino acids at each position in pMLL747–755 enable TCR interaction by sequentially replacing every amino acid position outside of the anchor positions 2 and 9 with all 19 alternative amino acids, resulting in 134 peptides (133 altered peptides plus original epitope). Each peptide was individually evaluated using cell-based in vitro cytotoxicity assay. To represent the TCR recognition kernel, we have defined Position Weight Matrices (PWMs) for each assay by assigning normalized measurements to each of the 20 amino acids in each position. To predict potential off-target peptides, we applied an algorithm projecting the PWM-defined kernel into the human proteome, scoring TCR27 recognition for the predicted HLA-B^*0702 binding 9-mer peptides. Of the 11 peptides with highest predicted cross-reactivity scores, we confirmed that only 2, […] and pDOT1L998–1006, strongly activated the TCR27-expressing effector T cells.

Row | Compound | Percentage GFP positive from TCR+ cells
1 | EPRsKSHSM [single-residue substitution of pMLL747–755, Pos 5] | 0.9%
2 | VPRsPSHSM [single-residue substitution of pMLL747–755, Pos 1] | 1.39%
3 | EPRsPSLSM [single-residue substitution of pMLL747–755, Pos 7] | 0.77%
4 | EPRsPSESM [single-residue substitution of pMLL747–755, Pos 7] | 1.15%
5 | EPRKPSHSM [single-residue substitution of pMLL747–755, Pos 4] | 1.03%
6 | EPRsPRHSM [single-residue substitution of pMLL747–755, Pos 6] | 0.98%
7 | EPWsPSHSM [single-residue substitution of pMLL747–755, Pos 3] | 0.92%
8 | EPRsTSHSM [single-residue substitution of pMLL747–755, Pos 5] | 0.78%
9 | EPRsPYHSM [single-residue substitution of pMLL747–755, Pos 6] | 0.75%
10 | EPRsPTHSM [single-residue substitution of pMLL747–755, Pos 6] | 1.88%
11 | EPRsPSKSM [single-residue substitution of pMLL747–755, Pos 7] | 0.69%
12 | EPRsPWHSM [single-residue substitution of pMLL747–755, Pos 6] | 0.66%
13 | EPRGPSHSM [single-residue substitution of pMLL747–755, Pos 4] | 1.01%
14 | EPRIPSHSM [single-residue substitution of pMLL747–755, Pos 4] | 0.86%
15 | EPLsPSHSM [single-residue substitution of pMLL747–755, Pos 3] | 1.35%
16 | EPRsPSHRM [single-residue substitution of pMLL747–755, Pos 8] | 1.29%
17 | EPRsPSHNM [single-residue substitution of pMLL747–755, Pos 8] | 2.91%
18 | EPRsPSCSM [single-residue substitution of pMLL747–755, Pos 7] | 0.97%
19 | EPVsPSHSM [single-residue substitution of pMLL747–755, Pos 3] | 2.11%
20 | EPRsPDHSM [single-residue substitution of pMLL747–755, Pos 6] | 1.07%
21 | NPRsPSHSM [single-residue substitution of pMLL747–755, Pos 1] | 1.27%
22 | EPMsPSHSM [single-residue substitution of pMLL747–755, Pos 3] | 1.48%

Row | Compound | Percentage GFP positive from TCR+ cells
23 | YPRsPSHSM [single-residue substitution of pMLL747–755, Pos 1] | 1.32%
24 | EPRsPSRSM [single-residue substitution of pMLL747–755, Pos 7] | 1.16%
25 | EPRYPSHSM [single-residue substitution of pMLL747–755, Pos 4] | 0.87%
26 | EPRsPSISM [single-residue substitution of pMLL747–755, Pos 7] | 1.77%
27 | EPRsPSHPM [single-residue substitution of pMLL747–755, Pos 8] | 2.91%
28 | EPRTPSHSM [single-residue substitution of pMLL747–755, Pos 4] | 0.8%
29 | EPRsPHHSM [single-residue substitution of pMLL747–755, Pos 6] | 2.09%
30 | EPRsPSNSM [single-residue substitution of pMLL747–755, Pos 7] | 1.24%
31 | EPRsWSHSM [single-residue substitution of pMLL747–755, Pos 5] | 1.08%
32 | EPSsPSHSM [single-residue substitution of pMLL747–755, Pos 3] | 2.7%
33 | EPRsPSTSM [single-residue substitution of pMLL747–755, Pos 7] | 3.23%
34 | EPRsPSHFM [single-residue substitution of pMLL747–755, Pos 8] | 1.28%
35 | EPRsISHSM [single-residue substitution of pMLL747–755, Pos 5] | 0.81%
36 | DPRsPSHSM [single-residue substitution of pMLL747–755, Pos 1] | 1.14%
37 | EPRsPSYSM [single-residue substitution of pMLL747–755, Pos 7] | 2.33%
38 | EPRsPNHSM [single-residue substitution of pMLL747–755, Pos 6] | 12.1%
39 | EPEsPSHSM [single-residue substitution of pMLL747–755, Pos 3] | 2.7%
40 | EPRDPSHSM [pMLL747–755 with aspartate at P4] | 0.92%
41 | APRsPSHSM [single-residue substitution of pMLL747–755, Pos 1] | 1.5%
42 | EPRsYSHSM [single-residue substitution of pMLL747–755, Pos 5] | 1%
43 | EPRsPLHSM [single-residue substitution of pMLL747–755, Pos 6] | 0.96%

Same assay, conditions: Fig. 1c source data, second set of control lines at the end of the sheet (no Pep code)

Row | Compound | Percentage GFP positive from TCR+ cells
44 | RVR[pS]PTRSL [unrelated phosphopeptide control of the X-scan, reference compound] | 0.74%

Target: HLA-B*0702 (Homo sapiens, UniProt P01889)
Assay: Alpha assay, peptide binding to HLA-B*0702
Conditions: Alpha assay (luminescent oxygen channeling), W6/32 antibody and biotinylated recombinant HLA class I; non-linear fit
Method: as §1

Row | Kd | Compound
45 | 26.2 nM | CSCC[C@H](NC(=O)[C@H](CO)NC(=O)[C@H](Cc1c[nH]cn1)NC(=O)[C@H](CO)NC(=O)[C@@H]1CCCN1C(=O)[C@H](COS(=O)(=O)O)NC(=O)[C@H](CCCNC(=N)N)NC(=O)[C@@H]1CCCN1C(=O)[C@@H](N)CCC(=O)O)C(=O)O [OSE-MLL747–755]
46 | 54.3 nM | LPASPAHQL [DOT1L998–1006]
47 | 309 nM | CC(C)C[C@H](NC(=O)[C@H](CCC(N)=O)NC(=O)[C@H](Cc1c[nH]cn1)NC(=O)[C@H](C)NC(=O)[C@@H]1CCCN1C(=O)[C@H](COP(=O)(O)O)NC(=O)[C@H](C)NC(=O)[C@@H]1CCCN1C(=O)[C@@H](N)CC(C)C)C(=O)O [pDOT1L998–1006] (H-LPA[pS]PAHQL-OH)
48 | 56.7 nM | CSCC[C@H](NC(=O)[C@H](CO)NC(=O)[C@H](Cc1c[nH]cn1)NC(=O)[C@H](CO)NC(=O)[C@@H]1CCCN1C(=O)[C@H](COP(=O)(O)O)NC(=O)[C@H](CCCNC(=N)N)NC(=O)[C@@H]1CCCN1C(=O)[C@@H](N)CCC(=O)O)C(=O)O [pMLL747–755] (H-EPR[pS]PSHSM-OH)
49 | 27 nM | EPRSPSHSM [MLL747–755]

Row | Compound | Kd
50 | CSCC[C@H](NC(=O)[C@H](CO)NC(=O)[C@H](Cc1c[nH]cn1)NC(=O)[C@H](CO)NC(=O)[C@@H]1CCCN1C(=O)[C@H](CCP(=O)(O)O)NC(=O)[C@H](CCCNC(=N)N)NC(=O)[C@@H]1CCCN1C(=O)[C@@H](N)CCC(=O)O)C(=O)O [E7P-MLL747–755] (H-EPR[Abu(4-PO3H2)]PSHSM-OH) | 33.9 nM

— publication PMC10290117, “Molecular mechanism of phosphopeptide neoantigen immunogenicity” (Nature Communications, 2023)
